target: Sigma non-opioid intracellular receptor 1 (Cavia porcellus) (UniProt Q60492); experiment: Receptor binding affinity against Sigma-1 receptor from guinea pig membranes
Sequence (Q60492 whole entry, looked up): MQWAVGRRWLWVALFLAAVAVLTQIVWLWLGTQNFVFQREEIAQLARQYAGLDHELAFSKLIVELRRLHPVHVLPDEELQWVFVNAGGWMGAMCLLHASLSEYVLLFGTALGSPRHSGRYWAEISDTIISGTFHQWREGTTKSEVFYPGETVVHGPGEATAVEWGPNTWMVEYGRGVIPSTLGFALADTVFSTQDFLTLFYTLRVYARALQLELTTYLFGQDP

Ki [nM]	SMILES
1.2	O=[N+]([O-])c1ccc(OCC2CCN(Cc3ccc(F)cc3)CC2)cc1 [1-(4-Fluoro-benzyl)-4-(4-nitro-phenoxymethyl)-piperidine]

target: Sigma non-opioid intracellular receptor 1 (Cavia porcellus) (UniProt Q60492); experiment: In vitro for binding affinity at sigma-1 receptor by measuring its ability to displace [3H](+)-pentazocine from guinea pig membranes

Ki [nM]	SMILES
4.3	N#Cc1ccc(OCC2CCN(CCCF)CC2)cc1
0.84	FCCN1CCC(COc2ccc(I)cc2)CC1 [1-(2-Fluoro-ethyl)-4-(4-iodo-phenoxymethyl)-piperidine]
3.3	Fc1cccc(CN2CCC(COc3c(F)c(F)c(F)c(F)c3F)CC2)c1 [1-(3-Fluoro-benzyl)-4-pentafluorophenyloxymethyl-piperidine]
1.7	FCCCN1CCC(COc2c(F)c(F)c(F)c(F)c2F)CC1 [1-(3-Fluoro-propyl)-4-pentafluorophenyloxymethyl-piperidine]
3.6	Fc1ccc(CN2CCC(COc3c(F)c(F)c(F)c(F)c3F)CC2)cc1 [1-(4-Fluoro-benzyl)-4-pentafluorophenyloxymethyl-piperidine]
0.5	Ic1ccc(OCC2CCN(CC3CC3)CC2)cc1 [1-Cyclopropylmethyl-4-(4-iodo-phenoxymethyl)-piperidine]
> 1000	Fc1c(F)c(F)c(CN2CCC(COc3c(F)c(F)c(F)c(F)c3F)CC2)c(F)c1F [1-Pentafluorophenylmethyl-4-pentafluorophenyloxymethyl-piperidine]
2.3	OCCN1CCC(COc2ccc(I)cc2)CC1 [2-[4-(4-Iodo-phenoxymethyl)-piperidin-1-yl]-ethanol]
10.5	N#Cc1ccccc1CN1CCC(COc2ccc(I)cc2)CC1 [2-[4-(4-Iodo-phenoxymethyl)-piperidin-1-ylmethyl]-benzonitrile]
2.9	N#Cc1cccc(CN2CCC(COc3ccc(I)cc3)CC2)c1 [3-[4-(4-Iodo-phenoxymethyl)-piperidin-1-ylmethyl]-benzonitrile]
0.88	Brc1cccc(OCC2CCN(CC3CC3)CC2)c1 [4-(3-Bromo-phenoxymethyl)-1-cyclopropylmethyl-piperidine]
0.38	FCCCN1CCC(COc2ccc(Br)cc2)CC1 [4-(4-Bromo-phenoxymethyl)-1-(3-fluoro-propyl)-piperidine]
0.6	Brc1ccc(OCC2CCN(CC3CC3)CC2)cc1 [4-(4-Bromo-phenoxymethyl)-1-cyclopropylmethyl-piperidine]
2.02	N#Cc1ccc(OCC2CCN(Cc3ccccc3Br)CC2)cc1 [4-[1-(2-Bromo-benzyl)-piperidin-4-ylmethoxy]-benzonitrile]
9.24	N#Cc1ccc(OCC2CCN(Cc3ccccc3I)CC2)cc1 [4-[1-(2-Iodo-benzyl)-piperidin-4-ylmethoxy]-benzonitrile]
0.76	N#Cc1ccc(OCC2CCN(Cc3ccc(F)cc3)CC2)cc1 [4-[1-(4-Fluoro-benzyl)-piperidin-4-ylmethoxy]-benzonitrile]

SMILES	Ki [nM]
N#Cc1ccc(OCC2CCN(CCF)CC2)cc1 [4-[1-(2-Fluoro-ethyl)-piperidin-4-ylmethoxy]-benzonitrile]	24.3

Source: BindingDB's records for doi:10.1021/jm960720+ (Ansto, 1997)
